Consider 13 molecules from ChEMBL document CHEMBL3352146, “Cytotoxic aaptamine derivatives from the South China Sea sponge Aaptos aaptos” (J Nat Prod, 2014).

For assay [1], the system named is KB. Kind of assay: Cytotoxicity against human KB cells after 72 hrs by methylene blue assay.
Assay [2] deals with HT-29. As to the kind of experiment: Cytotoxicity against human HT-29 cells after 72 hrs by methylene blue assay. The note with it: HT-29, 72 h.
Assay [3] has as its system HepG2. As to the kind of experiment: Cytotoxicity against human HepG2 cells after 72 hrs by methylene blue assay. The note with it: HepG2, 72 h.
Assay [4] deals with K562. Kind of assay: Cytotoxicity against human K562 cells after 48 hrs by trypan blue exclusion method. The assay is classed as functional, cell-based. Particulars: K562, 48 h.
Assay [5] is described as follows: Cytotoxicity against human HL60 cells after 48 hrs by trypan blue exclusion method. The assay is classed as functional, cell-based. The note with it: HL-60, 48 h.
In assay [6] the test system is MCF7. Kind of assay: Cytotoxicity against human MCF7 cells after 72 hrs by methylene blue assay. Particulars: MCF7, 72 h.

Turning to `CNc1cnc2c3c(ccnc13)C=C(OC)C2=O`, the IC50 in assay [1], in assay [2], in assay [3], in assay [4], in assay [5] and in assay [6] was over 10 µg/mL throughout.
Take `CCC(C)c1nc2c(=O)[nH]c3c(OC)c(OC)cc4ccn1c2c43` (configuration not stated): the IC50 in assay [1], in assay [2], in assay [3], in assay [4], in assay [5] and in assay [6] was over 10 µg/mL each time.
As to `CCOc1nc2c(=O)[nH]c3c(OC)c(OC)cc4ccn1c2c43`, the IC50 in assay [1], in assay [2], in assay [3], in assay [4], in assay [5] and in assay [6] was over 10 µg/mL throughout.
With `CCOC1=Nc2c(N)c(OC)cc3ccnc(c23)C1=O`, the IC50 turned out to be 660 nM in assay [1]; 6600 nM in assay [2]; 600 nM in assay [3]; 220 nM in assay [4]; 110 nM in assay [5]; 1200 nM in assay [6].
On to `COC1=Cc2ccnc3c(NCC(C)C)cnc(c23)C1=O`, for which the IC50 came to 1100 nM in assay [1]; 8500 nM in assay [2]; 1000 nM in assay [3]; 460 nM in assay [4]; 280 nM in assay [5]; 2300 nM in assay [6].
Take `COc1cc2ccn3c(CC(C)C)nc4c(=O)[nH]c(c1OC)c2c43`: the half-inhibitory concentration (IC50) in assay [1], in assay [2], in assay [3], in assay [4], in assay [5] and in assay [6] was over 10 µg/mL in each case.
On to `CC(=O)O[C@H]1C(=O)[C@@]2(C)[C@H]([C@H](OC(=O)c3ccccc3)[C@]3(O)C[C@H](OC(=O)[C@H](O)[C@@H](NC(=O)c4ccccc4)c4ccccc4)C(C)=C1C3(C)C)[C@]1(OC(C)=O)CO[C@@H]1C[C@@H]2O` [PACLITAXEL], for which the IC50 was 3.5 nM in assay [2]; 2.7 nM in assay [3]; 2.4 nM in assay [4]; 1.5 nM in assay [5]; 3.2 nM in assay [6].
`COC1=Cc2ccnc3c(NCCC(C)C)cnc(c23)C1=O`: the IC50 in assay [1] turned out to be 110 nM; in assay [2], 1800 nM; in assay [3], 170 nM; in assay [4], 90 nM; in assay [5] it was 30 nM; in assay [6], 440 nM.
Consider `COC1=Cc2ccnc3c(NCCc4ccccc4)cnc(c23)C1=O`, for which the IC50 came out at 120 nM in assay [1]; 2200 nM in assay [2]; 200 nM in assay [3]; 90 nM in assay [4]; 30 nM in assay [5]; 400 nM in assay [6].
For the molecule `COC1=Cc2ccnc3c4c(nc(c23)C1=O)CCCN4`, the IC50 in assay [1], in assay [2], in assay [3], in assay [4], in assay [5] and in assay [6] was over 10 µg/mL throughout.
Turning to `CCOC(=O)CCCNc1cnc2c3c(ccnc13)C=C(OC)C2=O`, the IC50 in assay [1], in assay [2], in assay [3], in assay [4], in assay [5] and in assay [6] was over 10 µg/mL in each case.
Regarding `COc1cc2ccn3c(C(C)C)nc4c(=O)[nH]c(c1OC)c2c43`, the IC50 in assay [1], in assay [2], in assay [3], in assay [4], in assay [5] and in assay [6] was over 10 µg/mL throughout.
As for `CCC(C)CNc1cnc2c3c(ccnc13)C=C(OC)C2=O` (configuration not stated), the IC50 in assay [1], in assay [2], in assay [3], in assay [4], in assay [5] and in assay [6] was over 10 µg/mL each time.

In general, IC50 refers to the concentration that gives 50% inhibition.
